# In patent US12077483B2, “Modified amine lipids” (Intellia Therapeutics, Inc., priority 2018, dated 2024):
# System: mouse TTR gene
# Assay: In vivo editing in mouse liver, LNP with Cas9 mRNA and sgRNA G502, NGS
# Conditions: G502, sgRNA:Cas9 mRNA 1:2 w/w, Example 119
# Experimental: CD-1 female mice, ranging from 6-10 weeks of age were used in each study. Animals were weighed and grouped according to body weight for preparing dosing solutions based on group average weight. LNPs were dosed via the lateral tail vein in a volume of 0.2 mL per animal (approximately 10 mL per kilogram body weight). The animals were periodically observed for adverse effects for at least 24 hours post dose.
# For studies measuring in vivo editing in liver, CD-1 female mice were dosed at 0.1 mpk unless otherwise noted. Animals were euthanized at 6 or 7 days by exsanguinationvia cardiac puncture under isoflourane anesthesia. Liver tissue was collected from each animal for DNA extraction and analysis. Blood was collected into serum separator tubes or into tubes containing buffered sodium citrate for plasma as described herein. Cohorts of mice were measured for editing by Next-Generation Sequencing (NGS).
# In brief, to quantitatively determine the efficiency of editing at the target location in the genome, genomic DNA was isolated and deep sequencing was utilized to identify the presence of insertions and deletions introduced by gene editing.
# PCR primers were designed around the target site (e.g., B2M), and the genomic area of interest was amplified. […] The reads were aligned to the relevant reference genome (e.g., GRCm38) after eliminating those having low quality scores. The resulting files containing the reads were mapped to the reference genome (BAM files), where reads that overlapped the target region of interest were selected and the number of wild type reads versus the number of reads which contain an insertion, substitution, or deletion was calculated.
# The editing percentage (e.g., the “editing efficiency” or “percent editing”) is defined as the total number of sequence reads with insertions or deletions over the total number of sequence reads, including wild type.
# We assessed in vivo editing efficiency for materials delivered with formulations with variable tail lengths through in vivo editing experiments. […]
row,SMILES,efficacy for in vivo editing (in words)
1,"CCCCC/C=C\C/C=C\CCCCCCCC(=O)OCC(COC(=O)CCCCCCC/C=C\C/C=C\CCCCC)OC(=O)CCC(CCCCC)OC(=O)NCCN1CCCC1 (stereo not drawn) [Compound 72, 2-((4-(((2-(pyrrolidin-1l-yl)ethyl)carbamoyl)oxy)nonanoyl)oxy)propane-1,3-diyl (9Z,9′Z,12Z,12′Z)-bis(octadeca-9,12-dienoate)]",efficacious
2,"CCCCC/C=C\C/C=C\CCCCCCCC(=O)OCC(COC(=O)CCCCCCC/C=C\C/C=C\CCCCC)OC(=O)CCC(CCCCCCCC)OC(=O)NCCN1CCCC1 (stereo not drawn) [Compound 51, 2-((4-(((2-(pyrrolidin-1-yl)ethyl)carbamoyl)oxy)dodecanoyl)oxy)propane-1,3-diyl (9Z,9′Z,12Z,12′Z)-bis(octadeca-9,12-dienoate)]",efficacious
3,"CCCCC/C=C\C/C=C\CCCCCCCC(=O)OCC(COC(=O)CCCCCCC/C=C\C/C=C\CCCCC)OC(=O)CCC(CCCCCC)OC(=O)NCCN1CCCC1 (racemic) [Compound 50, 2-((4-(((2-(pyrrolidin-1-yl)ethyl)carbamoyl)oxy)decanoyl)oxy)propane-1,3-diyl (9Z,9′Z,12Z,12′Z)-bis(octadeca-9,12-dienoate)]",efficacious

# System: not listed separately
# Assay: Tolerability in rats: liver enzyme panel 24 hours post dose
# Assay type: in vivo, rat
# Conditions: Sprague Dawley female rats, 6 mg/kg, serum
# Experimental: For efficacy, Sprague Dawley female rats were dosed i.v. at 0.1 mpk or 0.03 mpk. 6-7 days post dose, rats were euthanized by CO2 asphyxiation. Blood was collected into serum separator tubes. Liver biopsy processed for gDNA and assessed for editing by NGS methods described in Example 115. Results are shown in Table 11 and FIGS. 12A and 12B. For tolerability, Sprague Dawley female rats were dosed at 6 mpk and 24 hours post dose the animals were euthanized by CO2 asphyxiation. Blood was collected into serum separator tubes and sent to an external CRO for quantitation of liver enzymes via a liver enzyme panel.
SMILES,ALP (U/L),ALT (U/L),AST (U/L),Creatine kinase (U/L),GGT (U/L),Total Bilirubin [mg/dL]
"CCCCC/C=C\C/C=C\CCCCCCCC(=O)OCC(COC(=O)CCCCCCC/C=C\C/C=C\CCCCC)OC(=O)CCC(CCCCCC)OC(=O)OCCCN1CCCC1 (stereo not drawn) [Compound 45, 2-((4-(((3-(pyrrolidin-1-yl)propoxy)carbonyl)oxy)decanoyl)oxy)propane-1,3-diyl (9Z,9′Z,12Z,12′Z)-bis(octadeca-9,12-dienoate)]",439.8,163.2,681,1103,2.4,0.3
"CCCCC/C=C\C/C=C\CCCCCCCC(=O)OCC(COC(=O)CCC(OCCCCCCCC)OCCCCCCCC)COC(=O)OCCCN(CC)CC (stereo not drawn) [Compound 49, 3-((4,4-bis(octyloxy)butanoyl)oxy)-2-((((3-(diethylamino)propoxy)carbonyl)oxy)methyl)propyl (9Z,12Z)-octadeca-9,12-dienoate, reference compound]",784.3,408.5,534.8,157.5,2,0.6
"CCCCC/C=C\C/C=C\CCCCCCCC(=O)OCC(COC(=O)CCCCCCC/C=C\C/C=C\CCCCC)OC(=O)CCC(CCCCCCCC)OC(=O)NCCN(C)CC (stereo not drawn) [Compound 34, 2-((4-(((2-(ethyl(methyl)amino)ethyl)carbamoyl)oxy)dodecanoyl)oxy)propane-1,3-diyl (9Z,9′Z,12Z,12′Z)-bis(octadeca-9,12-dienoate)]",542,179.6,349.6,184.8,3.4,0.2
"CCCCC/C=C\C/C=C\CCCCCCCC(=O)OCC(COC(=O)CCCCCCC/C=C\C/C=C\CCCCC)OC(=O)CCC(CCCCCC)OC(=O)NCCN1CCCC1 (racemic) [Compound 50, 2-((4-(((2-(pyrrolidin-1-yl)ethyl)carbamoyl)oxy)decanoyl)oxy)propane-1,3-diyl (9Z,9′Z,12Z,12′Z)-bis(octadeca-9,12-dienoate)]",508.6,250.8,820.8,272,11,0.4
